Experimental data as given in US12129237B2, “Substituted diaminocarboxamide and diaminocarbonitrile pyrimidines, compositions thereof, and methods of treatment therewith” (SIGNAL PHARMACEUTICALS, LLC, priority 2011, dated 2024).

These compounds were tested against T1, JNK1 (Homo sapiens, UniProt P45983) (assay: JNK1 biochemical assays (one or more of: time resolved fluorescence, Z'-LYTE Cascade, radioactive)). Conditions: Table 2; JNK1 IC50 activity level; read-out: Act. Level.
T1 construct: purchased Carna Biosciences
T1 sequence (P45983 whole entry): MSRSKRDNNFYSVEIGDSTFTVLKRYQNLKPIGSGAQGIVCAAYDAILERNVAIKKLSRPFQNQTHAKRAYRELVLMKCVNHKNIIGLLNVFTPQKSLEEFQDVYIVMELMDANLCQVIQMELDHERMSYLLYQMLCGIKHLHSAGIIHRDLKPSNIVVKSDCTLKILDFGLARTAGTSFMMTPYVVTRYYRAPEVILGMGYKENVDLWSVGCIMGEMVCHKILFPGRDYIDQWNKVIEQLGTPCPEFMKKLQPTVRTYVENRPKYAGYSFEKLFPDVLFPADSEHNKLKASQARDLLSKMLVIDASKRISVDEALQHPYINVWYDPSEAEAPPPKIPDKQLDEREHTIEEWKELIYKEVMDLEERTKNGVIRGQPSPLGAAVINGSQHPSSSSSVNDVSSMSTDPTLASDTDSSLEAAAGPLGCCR
For `COc1cccc(CNc2ncc(C(N)=O)c(Nc3ccccc3)n2)c1OC` [Example B-55, 2-(2,3-dimethoxybenzylamino)-4-(phenylamino)pyrimidine-5-carboxamide], the IC50 was 0.2 to 0.8 µM. `CC(=O)NCCNc1ncc(C(N)=O)c(Nc2ccccc2)n1` [Example B-41, 2-(2-acetamidoethylamino)-4-(phenylamino)pyrimidine-5-carboxamide] showed an IC50 of 1 to 10 µM. `C[C@]1(O)CCC[C@@H](Nc2nc(N[C@@H]3CCc4ncccc4C3)ncc2C(N)=O)C1` [Example B-101, 4-((1R,3S)-3-hydroxy-3-methylcyclohexylamino)-2-((R)-5,6,7,8-tetrahydroquinolin-6-ylamino)pyrimidine-5-carboxamide] was tested, and the IC50 was less than 0.2 µM. `COc1ccc(Nc2ncc(C(N)=O)c(Nc3ccccc3)n2)c(C)c1` [Example B-18, 2-(4-methoxy-2-methylphenylamino)-4-(phenylamino)pyrimidine-5-carboxamide] was tested, and the IC50 was less than 0.2 µM. With `NC(=O)c1cnc(NC2CCN(Cc3ccccc3)CC2)nc1Nc1ccccc1` [Example B-50, 2-(1-benzylpiperidin-4-ylamino)-4-(phenylamino)pyrimidine-5-carboxamide] the IC50 was 0.2 to 0.8 µM. `COc1ccc(C)c(Nc2ncc(C(N)=O)c(Nc3ccccc3)n2)c1` [Example B-34, 2-(5-methoxy-2-methylphenylamino)-4-(phenylamino)pyrimidine-5-carboxamide] showed an IC50 of less than 0.2 µM. Work on `NC(=O)c1cnc(NC2CC2)nc1Nc1ccccc1` [Example B-36, 2-(cyclopropylamino)-4-(phenylamino)pyrimidine-5-carboxamide] yielded an IC50 of less than 0.2 µM. Compound `COc1ccc(Nc2ncc(C(N)=O)c(Nc3ccccc3)n2)c(OC)c1` [Example B-20, 2-(2,4-dimethoxyphenylamino)-4-(phenylamino)pyrimidine-5-carboxamide] has an IC50 of less than 0.2 µM. `NC(=O)c1cnc(N[C@H]2CCc3cnccc3C2)nc1N[C@@H]1CCC[C@H](O)C1` [Example B-95, 4-((1R,3S)-3-hydroxycyclohexylamino)-2-((S)-5,6,7,8-tetrahydroisoquinolin-6-ylamino)pyrimidine-5-carboxamide] was tested, and the IC50 was less than 0.2 µM. With `CC(C)(C)Nc1ncc(C(N)=O)c(Nc2ccccc2)n1` [Example B-12, 2-(tert-butylamino)-4-(phenylamino)pyrimidine-5-carboxamide] the IC50 was less than 0.2 µM. `NC(=O)c1cnc(N[C@H]2CCOc3ccccc32)nc1N[C@@H]1CCC[C@H](O)C1` [Example B-78, 2-((S)-chroman-4-ylamino)-4-((1R,3S)-3-hydroxycyclohexylamino)pyrimidine-5-carboxamide] was tested, and the IC50 was 0.8 to 1 µM. Work on `CC(C)Nc1nc(N[C@@H]2CCc3ncccc3C2)ncc1C(N)=O` [Example B-81, (R)-4-(isopropylamino)-2-(5,6,7,8-tetrahydroquinolin-6-ylamino)pyrimidine-5-carboxamide] yielded an IC50 of 0.2 to 0.8 µM. `NC(=O)c1cnc(NCC2CCCO2)nc1Nc1ccccc1` (stereo not shown) [Example B-64, 4-(phenylamino)-2-((tetrahydrofuran-2-yl)methylamino)pyrimidine-5-carboxamide] was tested, and the IC50 was 0.2 to 0.8 µM.

Same assay, conditions: Table 3; JNK1 IC50 activity level; read-out: Act. Level
`CC(C)(C)Nc1ncc(C#N)c(N[C@@H]2CCC[C@H](O)C2)n1` [Example C-7, 2-(tert-butylamino)-4-((1R,3S)-3-hydroxycyclohexylamino) pyrimidine-5-carbonitrile] gave an IC50 of 0.2 to 0.8 µM. `CN(C)C(=O)[C@H]1CC[C@H](Nc2ncc(C#N)c(N[C@@H]3CCCOC3)n2)CC1` [Example C-54, (1R,4r)-4-(5-cyano-4-((R)-tetrahydro-2H-pyran-3-ylamino)pyrimidin-2-ylamino)-N,N-dimethylcyclohexanecarboxamide] gave an IC50 of 0.2 to 0.8 µM. `CCO[C@H]1CC[C@H](Nc2ncc(C#N)c(N[C@@H]3CCOC3)n2)CC1` [Example C-39, 2-((1r,4R)-4-ethoxycyclohexylamino)-4-((R)-tetrahydrofuran-3-ylamino)pyrimidine-5-carbonitrile] was tested, and the IC50 was 1 to 10 µM. `N#Cc1cnc(N[C@H]2CC[C@H](OCC(F)(F)F)CC2)nc1N[C@@H]1CCC[C@H](O)C1` [Example C-14, 4-((1R,3S)-3-hydroxycyclohexylamino)-2-((1r,4R)-4-(2,2,2-trifluoroethoxy)cyclohexylamino) pyrimidine-5-carbonitril] gave an IC50 of less than 0.2 µM. `C[C@]1(O)CCC[C@@H](Nc2nc(N[C@H]3CC[C@H](OCC(F)(F)F)CC3)ncc2C#N)C1` [Example C-40] gave an IC50 of less than 0.2 µM.

Same assay, conditions: one or more of the JNK1 biochemical assays; read-out: Act. Level (JNK1 IC50 activity level)
For `CO[C@H]1CC[C@H](Nc2ncc(C(N)=O)c(NC3CCC3C)n2)CC1` (stereo partly shown) [Example 254, 2-((1r,4r)-4-methoxycyclohexylamino)-4-(2-methylcyclobutylamino)pyrimidine-5-carboxamide], the IC50 was less than 0.2 µM. For `CC(C)(C)Nc1nc(NC2CCOCC2)ncc1C(N)=O` [Example 317, 4-(tert-butylamino)-2-(tetrahydro-2H-pyran-4-ylamino)pyrimidine-5-carboxamide], the IC50 was less than 0.2 µM. In the case of `CC(C)(C)Nc1ncc(C(N)=O)c(NC(C)(C)C)n1` [Example 238, 2,4-bis(tert-butylamino)pyrimidine-5-carboxamide], the IC50 is reported as 0.2 to 0.8 µM. `C[C@@H]1CC[C@@H](Nc2nc(NC34CC(C3)C4)ncc2C(N)=O)C[C@H]1O` [Example 264, 2-(bicyclo[1.1.1]pentan-1-ylamino)-4-((1R,3R,4R)-3-hydroxy-4-methylcyclohexylamino)pyrimidine-5-carboxamide] was tested, and the IC50 was less than 0.2 µM. `CO[C@H]1CC[C@H](Nc2ncc(C(N)=O)c(N[C@@H]3CCC[C@H]3CO)n2)CC1` [Example 260, 4-((1R,2R)-2-(hydroxymethyl)cyclopentylamino)-2-((1r,4R)-4-methoxycyclohexylamino)pyrimidine-5-carboxamide] was tested, and the IC50 was less than 0.2 µM. `CC(C)(C)Nc1ncc(C(N)=O)c(N[C@H]2CCC(C)(C)[C@@H](O)C2)n1` [Example 323, 2-(tert-butylamino)-4-((1S,3S)-3-hydroxy-4,4-dimethylcyclohexylamino)pyrimidine-5-carboxamide] was tested, and the IC50 was 0.2 to 0.8 µM. `CC1CCC1Nc1nc(N[C@H]2CC[C@H](OCC(F)(F)F)CC2)ncc1C(N)=O` (stereo partly shown) [Example 258, 4-(2-methylcyclobutylamino)-2-((1r,4r)-4-(2,2,2-trifluoroethoxy)cyclohexylamino)pyrimidine-5-carboxamide] gave an IC50 of less than 0.2 µM. In the case of `COCC(C)(C)Nc1nc(N[C@H]2CC[C@H](O)CC2)ncc1C(N)=O` [Example 271, 2-((1r,4r)-4-hydroxycyclohexylamino)-4-(1-methoxy-2-methylpropan-2-ylamino)pyrimidine-5-carboxamide], the IC50 is reported as less than 0.2 µM. For `CCC(C)(C)Nc1ncc(C(N)=O)c(N[C@@H]2CCC[C@H](O)C2)n1` [Example 351, 4-((1R,3S)-3-hydroxycyclohexylamino)-2-(tert-pentylamino)pyrimidine-5-carboxamide], the IC50 was less than 0.2 µM. For `CC[C@@H](C)Nc1ncc(C(N)=O)c(N[C@@H]2CC[C@@H](C)[C@H](O)C2)n1` [Example 383, 2-(sec-butylamino)-4-((1R,3R,4R)-3-hydroxy-4-methylcyclohexylamino)pyrimidine-5-carboxamide], the IC50 was less than 0.2 µM. `CCC1(Nc2nc(N[C@H]3CC[C@H](OC)CC3)ncc2C(N)=O)CCC1` [Example 361, 4-(1-ethylcyclobutylamino)-2-((1r,4r)-4-methoxycyclohexylamino)pyrimidine-5-carboxamide] showed an IC50 of less than 0.2 µM. With `C[C@@H]1CC[C@@H](Nc2nc(NC3CCC3)ncc2C(N)=O)C[C@H]1O` [Example 285, 2-(cyclobutylamino)-4-((1R,3R,4R)-3-hydroxy-4-methylcyclohexylamino)pyrimidine-5-carboxamide] the IC50 was less than 0.2 µM. For `CCO[C@H]1CC[C@H](Nc2ncc(C(N)=O)c(N[C@@H](C)C(C)(C)C)n2)CC1` [Example 276, 4-((S)-3,3-dimethylbutan-2-ylamino)-2-((1r,4S)-4-ethoxycyclohexylamino)pyrimidine-5-carboxamide], the IC50 was less than 0.2 µM.

Same assay, conditions: tested in one or more of the JNK1 biochemical assays; read-out: Act. Level (JNK1 biochemical assay IC50 activity level)
For `CCO[C@H]1CC[C@@H](Nc2nc(NC(C)(C)CO)ncc2C(N)=O)CC1` [Example A-106, 4-((1s,4s)-4-ethoxycyclohexylamino)-2-(1-hydroxy-2-methylpropan-2-ylamino)pyrimidine-5-carboxamide], the IC50 was 0.2 to 0.8 µM. In the case of `NC(=O)c1cnc(N[C@H]2CC[C@H](O)CC2)nc1NC1CCCC1` [Example A-148, 4-(cyclopentylamino)-2-((1r,4r)-4-hydroxycyclohexylamino)pyrimidine-5-carboxamide], the IC50 is reported as less than 0.2 µM. Compound `CC(C)Nc1nc(N[C@H]2CC[C@H](CO)CC2)ncc1C(N)=O` [Example A-12, 2-((1r,4r)-4-(hydroxymethyl)cyclohexylamino)-4-(isopropylamino)pyrimidine-5-carboxamide] has an IC50 of less than 0.2 µM. With `CCO[C@H]1CC[C@H](Nc2ncc(C(N)=O)c(N[C@@H]3CCC[C@@H]3O)n2)CC1` [Example A-104, 2-((1r,4R)-4-ethoxycyclohexylamino)-4-((1R,2S)-2-hydroxycyclopentylamino)pyrimidine-5-carboxamide] the IC50 was less than 0.2 µM. In the case of `CC(C)(O)[C@H]1CC[C@@H](Nc2nc(NC3CCOCC3)ncc2C(N)=O)CC1` [Example A-111, 4-((1s,4s)-4-(2-hydroxypropan-2-yl)cyclohexylamino)-2-(tetrahydro-2H-pyran-4-ylamino)pyrimidine-5-carboxamide], the IC50 is reported as less than 0.2 µM. Work on `CO[C@H]1CC[C@H](Nc2ncc(C(N)=O)c(N[C@@H]3CCC[C@H]3O)n2)CC1` [Example A-65, 4-((1R,2R)-2-hydroxycyclopentylamino)-2-((1r,4R)-4-methoxycyclohexylamino)pyrimidine-5-carboxamide] yielded an IC50 of less than 0.2 µM. For `CO[C@H]1CC[C@H](Nc2ncc(C(N)=O)c(NC3CCC3)n2)CC1` [Example A-164, 4-(cyclobutylamino)-2-((1r,4r)-4-methoxycyclohexylamino)pyrimidine-5-carboxamide], the IC50 was less than 0.2 µM. `CC(C)CC(=O)N1CCC(Nc2nc(N[C@@H]3CC[C@@H](O)C3)ncc2C(N)=O)CC1` [Example A-86, 2-((1R,3R)-3-hydroxycyclopentylamino)-4-(1-(3-methylbutanoyl)piperidin-4-ylamino)pyrimidine-5-carboxamide] showed an IC50 of 0.2 to 0.8 µM. `CC[C@H](C)Nc1nc(N[C@H]2CC[C@H](O)CC2)ncc1C(N)=O` [Example A-195, 4-(sec-butylamino)-2-((1r,4S)-4-hydroxycyclohexylamino)pyrimidine-5-carboxamide] showed an IC50 of less than 0.2 µM.
